Measurements taken from ChEMBL document CHEMBL3880395, “Novel compounds and methods of use thereof” (2003).
Activity calls are given as the source filed them. The rule behind the calls is not given here.

Experiments:
[1] = species on record: Rattus norvegicus; assay: Antiangiogenic activity in Sprague-Dawley rat thoracic aortic rings assessed as inhibition of capillary like tube formation at 1 ug/ml for 5 days by MTT/MTS assay; type: functional; conditions: Thoracic aorta
[2] = species on record: Rattus norvegicus; assay: Antiangiogenic activity in Sprague-Dawley rat thoracic aortic rings assessed as inhibition of capillary like tube formation at 0.3 ug/ml for 5 days by MTT/MTS assay; type: functional; conditions: Thoracic aorta
[3] = Toxicity in DBA/2J mouse implanted with mouse P388 cells assessed as body weight loss at 25 to 400 mg/kg, po administered daily for 4 days measured twice daily during compound dosing; type: organism-based; conditions: in vivo, 96 h
[4] = system: P388; assay: Anticancer activity against mouse P388 cells implanted in po dosed DBA/2J mouse assessed as increase in life span administered daily for 4 days measured twice daily during compound dosing; type: functional, organism-based
[5] = Cytotoxicity against human HONE1 cells assessed as reduction in cell growth after 72 hrs by MTS assay; type: functional, cell-based; conditions: HONE1, 72 h
[6] = Anticancer activity against mouse P388 cells implanted in DBA/2J mouse assessed as increase in life span at 200 mg/kg, po administered daily for 4 days measured twice daily during compound dosing; type: functional; conditions: 96 h
[7] = Toxicity in athymic nude mouse xenografted in human SW480 cells xenografted assessed as body weight loss at 200 mg/kg, administered via oral gavage daily for 6 weeks measured twice per every week for 70 days; type: organism-based; conditions: in vivo, 1680 h
[8] = Toxicity in DBA/2J mouse implanted with mouse P388 cells assessed as body weight loss at 5 to 400 mg/kg, po administered daily for 4 days measured twice daily during compound dosing; type: organism-based; conditions: in vivo, 96 h

Row | Structure (SMILES) | inhibition [2] | also measured
1 | O=C(Nc1ccncc1)C(=O)c1cn(Cc2ccc(Cl)cc2)c2ccccc12 |  | inhibition [1]: Active
2 | O=C(Nc1ccc2ncccc2c1)C(=O)c1cn(Cc2ccco2)c2ccccc12 | Active | 
3 | N#Cc1ccc(Cn2cc(C(=O)C(=O)Nc3ccc(I)cc3)c3ccccc32)cc1 | Active | 
4 | Cc1cc(NC(=O)C(=O)c2cn(Cc3ccco3)c3ccccc23)sn1 | Active | 
5 | O=C(Nc1ccc2ncccc2c1)C(=O)c1cn(Cc2cscn2)c2ccccc12 | Active | 
6 | Cc1cc(NC(=O)C(=O)c2cn(Cc3ccsc3)c3ccccc23)sn1 | Active | 
7 | Cc1cc(Cn2cc(C(=O)C(=O)Nc3ccc4ncccc4c3)c3ccccc32)on1 | Active | 
8 | O=C(Nc1ccc2ncccc2c1)C(=O)c1cn(Cc2ccsc2)c2ccccc12 |  | Activity [3]: Non-Toxic; ILS [4]: Dose-dependent effect
9 | Cc1cc(NC(=O)C(=O)c2cn(Cc3cccs3)c3ccccc23)sn1 |  | inhibition [1]: Active
10 | Cc1cc(NC(=O)C(=O)c2cn(Cc3cc(C(C)C)no3)c3ccccc23)sn1 | Active | 
11 | Cc1cc(NC(=O)C(=O)c2cn(Cc3ccno3)c3ccccc23)sn1 | Active | 
12 | COc1ccc(NC(=O)C(=O)c2cn(Cc3ccccc3C#N)c3ccccc23)cc1 | Active | 
13 | Cc1cc(Cn2cc(C(=O)C(=O)Nc3cc(C)ns3)c3ccccc32)on1 | Active | IC50 [5]: 3 to 4 nM; ILS at 200 mg/kg [6]: 100%; Activity [7]: Non-Toxic; ILS [4]: Dose-dependent effect; Activity [8]: Non-Toxic
14 | CCc1cc(Cn2cc(C(=O)C(=O)Nc3cc(C)ns3)c3ccccc32)on1 | Active | 
15 | Cc1cc(NC(=O)C(=O)c2cn(Cc3ccc(C#N)cc3)c3ccccc23)sn1 | Active | Activity [3]: Non-Toxic; ILS [4]: Dose-dependent effect
16 | N#Cc1ccc(Cn2cc(C(=O)C(=O)Nc3ccc4ncccc4c3)c3ccccc32)cc1 | Active | 
17 | Cc1cc(Cn2cc(C(=O)C(=O)Nc3ccc(Br)cc3)c3ccccc32)on1 | Active | 
